Results reported in patent publication US7825279B2, “Fused ring dicationic anti-protozoan agents and their prodrugs” (The University of North Carolina at Chapel Hill, priority 2003, dated 2010).
Where two headings read alike, the source gives them in different places.

How the values were obtained:
poly dA-dT = assay: DNA ΔTm poly dA-dT; format: binding; set-up: unit not given here
[1] = test system: Trypanosoma brucei rhodesiense; assay: in vitro IC50 versus Trypanosoma brucei rhodesiense (T.b.r.); format: cell-based
Plasmodium falciparum = assay: in vitro IC50 versus Plasmodium falciparum (P.f.); format: cell-based
[2] = test system: virulent STIP90° strain of T.b.r.; assay: in vivo T.b.r. mouse model; conditions: for In vivo T.b.r. Cures: cures/animals
[3] = Trypanosoma brucei, RHODESIENSE
[4] = Plasmodium falciparum, in vitro, read-out: P.f. IC50

In the case of `Cl.Cl.N=C(N)Nc1ccc2c(c1)Cc1cc(NC(=N)N)ccc1-2` [Compound 5a, 2,7-Bis-guanidino-9H-fluorene Dihydrochloride], the “DNA ΔTm poly dA-dT” value (poly dA-dT) is reported as 13.6, the IC50 [1, 3] is reported as 24 nM and the IC50 (Plasmodium falciparum; Plasmodium falciparum, in vitro, read-out: IC-50 versus Plasmodium falciparum (p.f.)) is reported as at most 10 nM. The IC50 (Plasmodium falciparum; [4]) was 2.3 nM, the “In vivo T.b.r. survival days” value [2] was 6 days and the “In vivo T.b.r. Cures” value [2] was 0/4.
With `Cl.Cl.N=C(N)Nc1ccc2c(c1)C(=O)c1cc(NC(=N)N)ccc1-2` [Compound 5b, 2,7-Bis-guanidinofluoren-9-one Dihydrochloride] the “DNA ΔTm poly dA-dT” value (poly dA-dT) was 6.1, the IC50 ([1]; Dihydrochloride) was 7.3 nM and the IC50 [1, 3] was at most 13 nM. For the same compound, the IC50 (Plasmodium falciparum; [4]) was 268 nM, the “In vivo T.b.r. survival days” value [2] was 50.75 days and the “In vivo T.b.r. Cures” value [2] was 2/4.
In the case of `Cl.Cl.N=C(N)Nc1ccc2c(c1)C(=O)c1cc(NC(=N)N)ccc1C2=O` [Compound 5c, 2,7-Bis-guanidinoanthraquinone Dihydrochloride], the “DNA ΔTm poly dA-dT” value (poly dA-dT) is reported as 7.2, the IC50 [1, 3] is reported as 128 nM and the IC50 (Plasmodium falciparum; [4]) is reported as 23.5 nM. For the same compound, the “In vivo T.b.r. survival days” value [2] was 27 days and the “In vivo T.b.r. Cures” value [2] was 0/4.
For `Cl.Cl.Cl.N=C(N)Nc1ccc2cc3ccc(NC(=N)N)cc3nc2c1` [Compound 5d, 3,6-bis-guanidinoacridine Trihydrochloride], the “DNA ΔTm poly dA-dT” value (poly dA-dT) was 7.7, the IC50 [1, 3] was 67 nM and the IC50 (Plasmodium falciparum; [4]) was 227 nM. For the same compound, the “In vivo T.b.r. survival days” value [2] was 16.25 days and the “In vivo T.b.r. Cures” value [2] was 0/4.
With `CCOC(=O)NC(=N)Nc1ccc2c(c1)Cc1cc(NC(=N)NC(=O)OCC)ccc1-2` [Compound 7a, 2,7-Bis(N″-ethoxycarbonyl)guanidino-9H-fluorene] the “DNA ΔTm poly dA-dT” value (poly dA-dT) was 0.3, the IC50 [1] was 1400 nM and the IC50 (Plasmodium falciparum; in vitro, read-out: P.f. IC50) was 2100 nM. The “In vivo T.b.r. survival days” value [2] was 18.75 days and the “In vivo T.b.r. Cures” value [2] was 0/4.
With `CCOC(=O)NC(=N)Nc1ccc2c(c1)C(=O)c1cc(NC(=N)NC(=O)OCC)ccc1-2` [Compound 7b, 2,7-Bis(N″-ethoxycarbonyl)guanidinofluoren-9-one] the “DNA ΔTm poly dA-dT” value (poly dA-dT) was −0.3, the IC50 [1] was 1200 nM and the IC50 (Plasmodium falciparum; in vitro, read-out: P.f. IC50) was 3200 nM. For the same compound, the “In vivo T.b.r. survival days” value [2] was 6 days and the “In vivo T.b.r. Cures” value [2] was 0/4.
For `CCOC(=O)NC(=NC)Nc1ccc2c(c1)Cc1cc(NC(=NC)NC(=O)OCC)ccc1-2` [Compound 7c, 2,7-Bis(N″-ethoxycarbonyl-N′-methyl)guanidino-9H-fluorene], the IC50 [1] was 2900 nM and the IC50 (Plasmodium falciparum; in vitro, read-out: P.f. IC50) was 1000 nM.
With `CCOC(=O)NC(=NC(C)C)Nc1ccc2c(c1)Cc1cc(NC(=NC(C)C)NC(=O)OCC)ccc1-2` [Compound 7d, 2,7-Bis(N″-ethoxycarbonyl-N′-iso-propyl)guanidino-9H-fluorene] the “DNA ΔTm poly dA-dT” value (poly dA-dT) was −0.5, the IC50 [1] was 2500 nM and the IC50 (Plasmodium falciparum; in vitro, read-out: P.f. IC50) was 6300 nM. The “In vivo T.b.r. survival days” value [2] was 17.75 days and the “In vivo T.b.r. Cures” value [2] was 0/4.
In the case of `CNC(=N)Nc1ccc2c(c1)Cc1cc(NC(=N)NC)ccc1-2` [Compound 8a, 2,7-Bis(N′-methyl)guanidino-9H-fluorene], the “DNA ΔTm poly dA-dT” value (poly dA-dT) is reported as 10.1, the IC50 [1] is reported as 13 nM and the IC50 (Plasmodium falciparum; in vitro, read-out: P.f. IC50) is reported as 10 nM. For the same compound, the “In vivo T.b.r. survival days” value [2] was 52 days and the “In vivo T.b.r. Cures” value [2] was 3/4.
`CC(C)NC(=N)Nc1ccc2c(c1)Cc1cc(NC(=N)NC(C)C)ccc1-2` [Compound 8b, 2,7-Bis(N-iso-propyl)guanidino-9H-fluorene] was tested, and the “DNA ΔTm poly dA-dT” value (poly dA-dT) was 9.3, the IC50 [1] was 40.4 nM and the IC50 (Plasmodium falciparum; in vitro, read-out: P.f. IC50) was 35.7 nM. The “In vivo T.b.r. survival days” value [2] was 60 days and the “In vivo T.b.r. Cures” value [2] was 4/4.
With `c1ccc(N=Nc2ccc3c(c2)Cc2cc(N=Nc4ccccc4)ccc2-3)cc1` [Compound 9a, 2,7-Bis[(phenylimino)amino]-9H-fluorene] the “DNA ΔTm poly dA-dT” value (poly dA-dT) was 22, the IC50 [1, 3] was 292 nM and the IC50 (Plasmodium falciparum; Plasmodium falciparum, read-out: P.f. IC50) was 481 nM. The “In vivo T.b.r. survival days” value [2] was 7 days and the “In vivo T.b.r. Cures” value [2] was 0/4.
In the case of `c1ccc(N=Nc2ccc3c(c2)Cc2cc(N=Nc4ccccn4)ccc2-3)nc1` [Compound 9b, 2,7-Bis[(2-pyridylimino)amino]-9H-fluorene], the “DNA ΔTm poly dA-dT” value (poly dA-dT) is reported as 15.2, the IC50 [1, 3] is reported as 894 nM and the IC50 (Plasmodium falciparum; [4]) is reported as 1200 nM.
